The test system of data set [1] is human dermal microvascular endothelial cells (HDMEC). Put plainly: HDMEC cytotoxicity assay. Particulars: concentration at 50% cytotoxicity. The class given is cell-based.
The test system of the next data set is C. albicans ATCC90028. Put plainly: CO-ADD antifungal screening, MIC. The data set is classed as cell-based, Candida albicans. The following applies: yeast nitrogen base, 2.5 × 10^3 CFU/mL, 35 °C 24 h, OD530, n=2.
Data set [2] concerns human embryonic kidney cells (HEK 293). Put plainly: HEK 293 cytotoxicity assay. The class given is cell-based. Particulars: concentration at 50% cytotoxicity, CO-ADD.
Another data set relates to S. aureus. The following applies: ref [58]; cited from earlier work.
For a further data set, the system named is E. coli. Particulars: ref [58]; cited from earlier work.

No end group written: not given here.

Regarding GLFDIVKKVVKLLK-NH2 [compound 7], the “HDMEC (CC50)” value in data set [1] is 236 µM. Moreover, the “MIC C. albicans ATCC90028*” value in the data set on C. albicans ATCC90028 was greater than 20 µM.

Turning to KLLKLVKKVVGALG-NH2 [compound 13], the “HDMEC (CC50)” value in data set [1] is 533 µM. Besides, the “MIC C. albicans ATCC90028*” value against C. albicans ATCC90028 is greater than 22 µM.

With KLLKLLKKLLGALG-NH2 [compound 16], the “HEK293 (CC50)” value in data set [2] was found to be 7 µM. For the same substance, the “HDMEC (CC50)” value in data set [1] was 8 µM. Also, in the data set on C. albicans ATCC90028, the “MIC C. albicans ATCC90028*” value was 11 µM.

GLFDIVKKVVGLLK-NH2 [compound 8]: the “HDMEC (CC50)” value in data set [1] stood at 28 µM. Also, the “MIC C. albicans ATCC90028*” value with C. albicans ATCC90028 was greater than 21 µM.

Turning to GLFKLLKKLLKLLK-NH2 [compound 2], the “HEK293 (CC50)” value in data set [2] is greater than 19 µM. In addition, the “HDMEC (CC50)” value in data set [1] was found to be 2 µM. In addition, the “MIC C. albicans ATCC90028*” value in the data set with C. albicans ATCC90028 is greater than 20 µM.

As to “KLLKLLKKLLKLLK-NH2 [Klk14, reference compound]”, in data set [2], the “HEK293 (CC50)” value was 10 µM. Besides, in data set [1], the “HDMEC (CC50)” value worked out at 3 µM. Moreover, the “MIC C. albicans ATCC90028*” value with C. albicans ATCC90028 is 9 µM.

In the case of KLLKLLKKLLKALG-NH2 [compound 17], the “HEK293 (CC50)” value in data set [2] was greater than 20 µM. The “HDMEC (CC50)” value in data set [1] turned out to be 4 µM. Moreover, the “MIC C. albicans ATCC90028*” value against C. albicans ATCC90028 is 20 µM.

In the case of “GLFDIVKKVVGALG-NH2 [Au2.2d2, reference compound]”, in data set [1], the “HDMEC (CC50)” value is 64 µM. The “MIC C. albicans ATCC90028*” value in the data set with C. albicans ATCC90028 is greater than 23 µM.

On to WWKRWKKLRRIFLML, for which the “MIC against S. aureus” value in the data set on S. aureus was 4 µM. Moreover, the “MIC against E. coli” value in the data set on E. coli was 4 µM.

Turning to KLLKLLKKLVGALG-NH2 [compound 15], the “HEK293 (CC50)” value in data set [2] was 12 µM. Also, the “HDMEC (CC50)” value in data set [1] came to 25 µM. In addition, the “MIC C. albicans ATCC90028*” value against C. albicans ATCC90028 turned out to be 21 µM.

For GLFDIVKKVVGALK-NH2 [compound 9], the “HDMEC (CC50)” value in data set [1] came to 103 µM. The “MIC C. albicans ATCC90028*” value in the data set on C. albicans ATCC90028 is greater than 22 µM.

Values taken from publication PMC7547863 (Biochemistry, 2020).
